Among the data in PubChem BioAssay AID463074 (Broad Institute, 2010) are AC50 values, retold here.

By AC50 is commonly meant the concentration giving half of the maximal activity seen.

Activity calls are given as the source filed them.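 The calls were made as follows: active = AC50 no more than tenfold above the top dose tested, or full inhibition at every dose with a flat fit (cut at about 19 µM in these data); inconclusive = flat curve fit with inhibition between 30% and 70%, or poor fit; inactive = AC50 more than tenfold above the top dose tested.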

The experiment has as its system HMLE_sh_eGFP viability, CellTiter-Glo luminescence, 72 h. Description: viability loss of HMLE_sh_eGFP cells – cell-based, luminescence, counter-screen for HMLE_sh_ECad selective toxicity project, dose response (AID 463074;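 also: counterscreen control line to flag general toxicity for the HMLE_sh_ECad screen; potency for loss of viability as luminescence drops below DMSO wells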). (Counterscreens check selectivity or assay interference.)
As for `Cc1ccc(-c2ccc([C@H]3[C@@H]4C=CCC[C@@]4(C)C(=O)N3Cc3ccccc3)c(F)c2)cc1`, the AC50 was 5.32 µM.

As to `O=C(NNC(=O)c1cc(Cl)ccc1O)c1ccc(NS(=O)(=O)c2cccs2)cc1`, the concentration at half-maximal activity (AC50) is 8.13 µM.

On to `CC1(C)CC[C@]2(CO)[C@@H](O)C[C@]3(C)C(=CCC4[C@@]5(C)CC[C@H](O)C(C)(C)C5CC[C@]43C)[C@@H]2C1` (stereo partly drawn), for which the AC50 is 4.35 µM.

Consider `O=C(Nc1nc(-c2cc(Cl)sc2Cl)cs1)c1cccs1`, for which the concentration at half-maximal activity (AC50) was 2.42 µM.

On to `COc1cccc(Nc2nc(-c3cccs3)nc3ccccc23)c1`, for which the AC50 is 7.32 µM.

For the compound `CCOc1ccc(S(=O)(=O)N2CCN=C2c2ccccc2)cc1`, the AC50 was 3.1 µM.

Turning to `O=C(NCCc1ccccc1)c1cc(-c2ccccc2)c(N2CCOCC2)s1`, the AC50 is 3.61 µM.

As to `Cc1ccc(C(=O)C(C(=O)/C=C/c2ccccc2)=C2SCCCS2)cc1`, the concentration at half-maximal activity (AC50) was 1.56 µM.

Take `Clc1cc2cccnc2c2ncccc12`: the concentration at half-maximal activity (AC50) was 3.56 µM.

Consider `CCCCNc1c(-c2ccc(-c3cccc(Cl)c3)cc2)nc2ccccn12`, for which the concentration at half-maximal activity (AC50) is 3.87 µM.

As for `CC(NS(=O)(=O)OCC(Cl)(Cl)Cl)c1ccc(C(C)(C)C)cc1` (stereo not drawn), the AC50 was 3.57 µM.

As to `Cc1cccc(N(C)C(=O)c2cc3c(=O)[nH]c4ccc(C)cc4c3s2)c1`, the AC50 is 2.52 µM.

Regarding `C[C@@H]1CN([C@@H](C)CO)C(=O)c2cc(NC(=O)Nc3ccc(F)cc3)ccc2O[C@@H]1CN(C)Cc1ccc(Oc2ccccc2)cc1`, the AC50 is 3.48 µM.

As to `O=C(CNC(=O)C(c1ccccc1)c1ccccc1)N/N=C/c1ccc(O)cc1O`, the AC50 is 1.88 µM.

For the compound `COc1ccc(CNCCC(c2ccc(OC(C)C)cc2)c2ccccc2OC)cc1` (stereo not drawn), the concentration at half-maximal activity (AC50) was 4.71 µM.

As to `Cc1ccc(-c2csc3ncnc(-n4cnc5ccccc54)c23)cc1`, the concentration at half-maximal activity (AC50) is 4.28 µM.

`O=c1c2ccccc2nc(COc2ccccc2)n1/N=C/c1cc([N+](=O)[O-])ccc1O`: the AC50 is > 19.5 µM (inactive).

Regarding `COC(=O)c1ccc(/C=C/c2c(-c3ccc(OC)cc3)oc3ccc(N4CCOCC4)cc23)cc1`, the AC50 is 4.19 µM.

Regarding `Fc1ccccc1COc1ccc(-c2nnn(Cc3ccccc3F)n2)cc1`, the AC50 is 4.81 µM.

As to `O=C(N/N=C/c1ccc[nH]1)c1sc2ccccc2c1Cl`, the AC50 was 13.4 µM.

For the compound `CCN(CC)CCOc1ccc(/C(=C(\Cl)c2ccccc2)c2ccccc2)cc1`, the AC50 was 1.55 µM.

For the compound `O=C(/C=C/c1cc2ccccc2o1)c1ccccc1O`, the half-maximal activity concentration (AC50) is 10.1 µM.

Regarding `O=C(NNC(=O)c1cc(-c2ccc(Cl)c(Cl)c2)nc2ccccc12)Nc1ccccc1`, the concentration at half-maximal activity (AC50) is 6.4 µM.

As to `C/C(=N\Nc1ccccc1)c1c(O)n(-c2ccccc2)c(=O)[nH]c1=O`, the AC50 is 2.45 µM.

Turning to `CC(=O)n1c2c(c3ccccc31)OC(N)=C(C#N)C2c1cccc(Cl)c1Cl` (stereo not drawn), the AC50 was 4.88 µM.

Consider `c1ccc(-c2cc3c(NCC4COc5ccccc5O4)ncnc3s2)cc1` (stereo not drawn), for which the AC50 is 4.99 µM.

In the case of `O=S(=O)(NCc1ccncc1)c1ccc(S(=O)(=O)NCC2CCCO2)cc1` (stereo not drawn), the AC50 was > 19.5 µM (inactive).

As for `O=C1C=C(c2cccs2)C[C@H](c2ccccc2)[C@H]1n1nnc([N+](=O)[O-])n1`, the half-maximal activity concentration (AC50) was 0.274 µM.

Turning to `Cc1ccc(C)c(N2CCN(C(=O)c3ccc4c(c3)c(C)c(C)n4C)CC2)c1`, the AC50 is 9.07 µM.

As for `Cc1cc(C)nc(NC(=O)/C=C/c2ccc3c(c2)OCO3)c1`, the concentration at half-maximal activity (AC50) is 2.8 µM.

On to `O=C(CCOc1ccccc1)N1CCN(c2ccc(O)cc2)CC1`, for which the AC50 was 3.25 µM.

As to `COc1cc(-c2ccc3c(=O)c4ccccc4n(C)c3c2)cc(OC)c1OC`, the concentration at half-maximal activity (AC50) was 8.21 µM.

Take `COc1ccc(-c2sc3ccc(N4CCOCC4)cc3c2C#CC2(O)CCCCC2)cc1`: the AC50 is 2.94 µM.

Turning to `O=C(Nc1nccs1)c1ccc(COc2ccccc2Br)o1`, the AC50 was 4.84 µM.

For `Cc1cc(C)cc(NC(=O)Nc2ccc(NC(=O)c3ccccc3O)cc2)c1`, the AC50 was > 19.5 µM (inactive).

With `COc1ccc(-c2nc(NC(=O)c3cc(C(C)(C)C)nn3C)sc2C)cc1`, the AC50 was 14.2 µM.

`COc1cc(CNC2CCCC2)cc(Cl)c1OCc1ccccc1Cl`: the AC50 is 6.95 µM.

As to `O=S(=O)(N/N=C1/CC(c2ccccc2)Oc2ccccc21)c1ccc(Br)cc1` (stereo not drawn), the concentration at half-maximal activity (AC50) was 4.21 µM.

For `Cc1ccc(C)c(Cc2c(C)nc3c(C(=O)NCc4ccc5c(c4)OCO5)cnn3c2C)c1`, the half-maximal activity concentration (AC50) was 19 µM.

On to `Cc1cccc(NC(=O)CCC(=O)N/N=C/c2ccc(O)cc2O)c1`, for which the half-maximal activity concentration (AC50) is 10.6 µM.

With `Oc1ccc(Br)cc1-c1cc(-c2ccccc2)n[nH]1`, the half-maximal activity concentration (AC50) was 6.31 µM.

`C#CCOCCOCCOCCNc1nc(N2CCN(C(=O)CCCCCCCCCCNC(=O)Cn3cc(C[C@@H](C)O)nn3)CC2)nc(N2CCN(C(=O)CCCCCCCCCCNC(=O)[C@H](CCCCN)n3cc(C[C@@H](C)CC)nn3)CC2)n1`: the concentration at half-maximal activity (AC50) was 6.8 µM.

Turning to `O=c1c(Cl)c(NCc2ccc(F)cc2)cnn1C12CC3CC(CC(C3)C1)C2`, the AC50 was 2.15 µM.

As to `CCCCCCCCOC(=O)C1=C(C)Nc2nnnn2C1c1cccs1` (stereo not drawn), the AC50 was 6.86 µM.

Regarding `Cc1cc(N2CCCCC2)n2ncc(-c3ccc(Cl)cc3)c2n1`, the AC50 is 6.51 µM.

In the case of `CN1/C(=C\C(=O)Nc2ccc(Br)cc2)C(C)(C)c2ccccc21`, the half-maximal activity concentration (AC50) is 7.32 µM.

Take `CNC(CC(=O)c1ccc([N+](=O)[O-])cc1)C(Cl)(Cl)Cl` (stereo not drawn): the AC50 is 3.96 µM.

As to `CC[C@@H]1Cc2cc(O)ccc2C2=C1c1ccc(O)cc1C[C@H]2CC`, the AC50 was 4.15 µM.

Regarding `Cc1ccc(NC(=S)N/N=C/c2c(Cl)cccc2Cl)c(C)c1`, the AC50 is 0.369 µM.

Turning to `COc1ccc(Cc2nnc(N/N=C/c3ccccc3O)[nH]c2=O)cc1OC`, the AC50 is 3.4 µM.

In the case of `c1ccc(-c2c3ccccc3nc3[nH]c4ccccc4c23)cc1`, the AC50 is 2.95 µM.

For `O=C1[C@@H]2Cc3c([nH]c4ccccc34)C(c3cccc(Br)c3)N2C(=O)CN1C1CCN(Cc2ccccc2)CC1` (stereo partly drawn), the AC50 was 7.12 µM.

In the case of `CCCOc1ccc2c(c1)C(=NN=C(N)N)c1cc(OCCC)ccc1-2`, the AC50 was 3.7 µM.

Regarding `O=C(CN1c2ccccc2Sc2ccccc21)NNC(=O)Nc1ccc(Cl)c(Cl)c1`, the AC50 was 3.46 µM.

`Cc1ccc(CNc2cnn(C34CC5CC(CC(C5)C3)C4)c(=O)c2Cl)cc1`: the AC50 was 2.44 µM.

For `Brc1ccc(/C=N/Nc2ccccc2)cc1`, the AC50 was 8.16 µM.

As for `COc1ccc(C)cc1Nc1n[n+](-c2ccccc2)c(-c2c(OC)ccc3ccccc23)s1`, the concentration at half-maximal activity (AC50) was 6.93 µM.

As for `Nc1ccc(CCN2CCN(c3cccc(C(F)(F)F)c3)CC2)cc1`, the half-maximal activity concentration (AC50) was 1.42 µM.

As for `Cc1ccc2[nH]c3nc(N/N=C/c4cccc(O)c4)nnc3c2c1`, the concentration at half-maximal activity (AC50) was 0.248 µM.

On to `Cc1cc(SCC(=O)N/N=C/c2ccc(O)cc2O)nc2ccccc12`, for which the half-maximal activity concentration (AC50) was 4.75 µM.

For `O=c1[nH]c(CN2CC=C(c3ccccc3)CC2)nc2scc(-c3ccccc3)c12`, the AC50 was 5.19 µM.

Consider `CCOC(=O)c1c(NC(=O)/C=C/c2ccc3c(c2)OCO3)sc(C)c1CC`, for which the half-maximal activity concentration (AC50) was 1.35 µM.

On to `CC(=O)Oc1c(Cl)cc(Cl)cc1/C=C/c1ccc2ccccc2n1`, for which the AC50 was 2.86 µM.

As for `O=C(/C=C/c1ccc(F)cc1)c1cc(Br)ccc1O`, the AC50 was 14.1 µM.

Turning to `O=C(/C=C/c1ccccc1)NC(=S)NNC(=O)c1cnccn1`, the AC50 was 6.84 µM.

As for `CC(=O)C12CC(C)=C(C)CC1CC1C3CCC4=CC(=O)CCC4(C)C3CCC12C` (stereo not drawn), the half-maximal activity concentration (AC50) was 6.65 µM.

Consider `CCN1C(=O)C(CC(=O)Nc2ccc(F)cc2)N(CCCN2CCN(c3ccc(F)cc3)CC2)C1=S` (stereo not drawn), for which the AC50 was 6.83 µM.

As for `COc1ccc(-c2cc(C3CCN(c4ccc(C(C)=O)cc4[N+](=O)[O-])CC3)[nH]n2)cc1`, the concentration at half-maximal activity (AC50) was 8.83 µM.

Take `COc1ccc(-c2cc([C@H]3[C@@H]4C=CCC[C@@]4(C)C(=O)N3Cc3ccccc3)ccc2F)cc1`: the concentration at half-maximal activity (AC50) is 6.8 µM.

As to `CCCc1nc(NC2CCCCC2)c(C#N)c2c1COC(C)(C)C2`, the half-maximal activity concentration (AC50) is 7.68 µM.

Consider `O=C(NC(=S)Nc1cccc(Cl)c1N1CCCCC1)c1ccco1`, for which the AC50 was 3.81 µM.

On to `C1=C(c2sc3ccccc3c2-c2ccc(OCCN3CCOCC3)cc2)CCCC1`, for which the AC50 was 1.94 µM.

On to `O=C(Nc1ccc(Br)c(C(F)(F)F)c1)c1ccc(C(F)(F)F)cc1`, for which the AC50 is 3.03 µM.

Turning to `COc1ccc2cc(C(=O)N/N=C/c3sc4ccccc4c3O)ccc2c1`, the half-maximal activity concentration (AC50) is 1.8 µM.

`OC(CNCC(c1ccc(Cl)cc1Cl)c1c[nH]c2ccccc12)c1ccccc1` (stereo not drawn): the AC50 is 2.88 µM.

Consider `S=C(Nc1cc(Cl)cc(Cl)c1)NC1CCN(Cc2ccccc2)CC1`, for which the half-maximal activity concentration (AC50) is 4.23 µM.

Consider `CCCc1cc(-c2nc(-c3ccc(Cl)cc3)cs2)ccn1`, for which the half-maximal activity concentration (AC50) is 13 µM.

Turning to `CCC(=O)NNc1ccc(Br)cc1`, the AC50 is 6.69 µM.

With `CC(C)(C)c1ccc(C(=O)NCCCN2CCN(CCCNC(=O)c3ccc(C(C)(C)C)cc3)CC2)cc1`, the half-maximal activity concentration (AC50) was 3.25 µM.

As to `COc1ccc(C2=Nn3c(nnc3-c3ccccc3F)SC2)cc1OC1CCCC1`, the AC50 is 5.54 µM.

For `CCCOC(=O)c1ccc(Oc2c(-c3ccc(OCC)cc3O)n[nH]c2C)cc1`, the concentration at half-maximal activity (AC50) is 4.06 µM.

As to `O=C(Nc1ccc(Cl)cc1)c1cc2c(cc1O)[nH]c1ccccc12`, the AC50 was 0.488 µM.

`Cc1ccc(NS(=O)(=O)c2cc([N+](=O)[O-])ccc2NNC(=S)Nc2cc(C)ccc2C)c(C)c1`: the AC50 was 2.6 µM.

For the compound `CC1=NN(c2ccccc2)C(=O)/C1=C/C=C/c1ccccc1`, the concentration at half-maximal activity (AC50) is 3.57 µM.

Turning to `O=C(N/N=C/c1cc(Cl)ccc1O)C(=O)Nc1ccccc1OC(F)(F)C(F)F`, the AC50 was 3.9 µM.

Consider `CCCCCCOc1ccc(/C(C)=N/NC2=NCCN2)cc1[N+](=O)[O-]`, for which the AC50 was 3.69 µM.

Consider `Cc1ccc(NNC(=O)c2ccno2)cc1Cl`, for which the AC50 is 4 µM.

For `Cc1cc(C)c(C(=O)/C=C/c2ccc(C(C)C)cc2)c(=O)[nH]1`, the AC50 is 10.1 µM.

Regarding `CC(C)(C)c1ccc(NC(=O)N2CCCN(c3c(Cl)cncc3Cl)CC2)cc1`, the AC50 was 2.85 µM.

On to `O=C(NCc1ccc(F)cc1)C(=O)Nc1nc(C23CC4CC(CC(C4)C2)C3)cs1`, for which the AC50 was 2.13 µM.

Regarding `O=C(c1ccc(OCCN2CCCCC2)cc1)c1c(-c2ccc(O)cc2)sc2cc(O)ccc12`, the AC50 was 2.35 µM.

`CCn1c(C)nc2cc(C(=O)N/N=C/c3cccc(OC)c3O)ccc21`: the AC50 was 6.95 µM.

On to `O=C(/C(=C/O)N=Nc1ccc(Cl)cc1)c1ccncc1`, for which the AC50 was 6.53 µM.
